Test results taken from patent US11306101B2 (Celgene Corporation, priority 2019, dated 2022).

Target: T1, CK1α (Homo sapiens, UniProt P48729+Q96SW2)
T1 construct: expressed in transfected cells
Test: CK1α ePL degradation assay in MDS-L cells
Format: cell-based
Details: MDS-L cells expressing ePL-tagged CK1α; for DC50: concentration giving 50% CK1α degradation vs DMSO control; for Y: lowest measured CK1α level normalized to DMSO control
Procedure: The following is an example of an assay that can be used to determine the CK1α degradation activity of Isoindolinone Carboxamide Compounds in a cell line, for example, the MDS-L cell line.
Compounds were dispensed by an acoustic dispenser (ATS acoustic transfer system from EDC Biosystems) into a 384-well in a 10 point dose-response curve using 3-fold dilutions starting at 10 μM and going down to 0.0005 μM in DMSO. […] Assay plates were incubated at 37° C. with 5% CO2 for the indicated times. At the different time points, 25 μL of the InCELL Hunter™ Detection Reagent Working Solution (catalog number 96-0002, DiscoverX, Fremont, Calif.) was added to each well and incubated at RT for 30 min protected from light. After 30 min, luminescence was read on a PHERAstar luminometer (BMG LABTECH, Cary, N.C.).
CK1α levels in compound-treated wells were normalized to that of DMSO control and expressed as percent of control (PoC) (y).
The lowest measured CK1α level normalized to DMSO control in response to compound treatment, termed Y value, was used to characterize the compound-mediated CK1α degradation efficiency.

T1 sequence (P48729 whole entry): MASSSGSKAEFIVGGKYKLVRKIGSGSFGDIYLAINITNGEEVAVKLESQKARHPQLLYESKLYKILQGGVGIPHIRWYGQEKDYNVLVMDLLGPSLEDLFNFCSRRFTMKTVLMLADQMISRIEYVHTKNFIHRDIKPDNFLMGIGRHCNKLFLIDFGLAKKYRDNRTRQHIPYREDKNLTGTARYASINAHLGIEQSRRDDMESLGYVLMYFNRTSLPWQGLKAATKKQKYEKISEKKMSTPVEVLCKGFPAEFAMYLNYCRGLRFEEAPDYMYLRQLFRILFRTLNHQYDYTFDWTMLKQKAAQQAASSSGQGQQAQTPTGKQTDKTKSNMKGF
T1 sequence (Q96SW2 whole entry): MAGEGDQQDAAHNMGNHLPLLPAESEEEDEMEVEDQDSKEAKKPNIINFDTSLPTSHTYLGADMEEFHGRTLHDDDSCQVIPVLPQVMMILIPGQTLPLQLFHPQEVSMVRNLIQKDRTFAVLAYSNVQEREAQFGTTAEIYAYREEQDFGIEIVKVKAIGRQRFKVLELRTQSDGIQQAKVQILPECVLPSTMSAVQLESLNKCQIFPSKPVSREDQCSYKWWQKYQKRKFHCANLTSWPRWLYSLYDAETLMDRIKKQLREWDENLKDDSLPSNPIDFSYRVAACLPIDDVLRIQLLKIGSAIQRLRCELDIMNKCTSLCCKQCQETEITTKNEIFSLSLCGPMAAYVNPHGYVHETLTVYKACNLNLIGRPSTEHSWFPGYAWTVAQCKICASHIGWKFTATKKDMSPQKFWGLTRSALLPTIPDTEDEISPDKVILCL
T1 sequence (Q16531 whole entry partner): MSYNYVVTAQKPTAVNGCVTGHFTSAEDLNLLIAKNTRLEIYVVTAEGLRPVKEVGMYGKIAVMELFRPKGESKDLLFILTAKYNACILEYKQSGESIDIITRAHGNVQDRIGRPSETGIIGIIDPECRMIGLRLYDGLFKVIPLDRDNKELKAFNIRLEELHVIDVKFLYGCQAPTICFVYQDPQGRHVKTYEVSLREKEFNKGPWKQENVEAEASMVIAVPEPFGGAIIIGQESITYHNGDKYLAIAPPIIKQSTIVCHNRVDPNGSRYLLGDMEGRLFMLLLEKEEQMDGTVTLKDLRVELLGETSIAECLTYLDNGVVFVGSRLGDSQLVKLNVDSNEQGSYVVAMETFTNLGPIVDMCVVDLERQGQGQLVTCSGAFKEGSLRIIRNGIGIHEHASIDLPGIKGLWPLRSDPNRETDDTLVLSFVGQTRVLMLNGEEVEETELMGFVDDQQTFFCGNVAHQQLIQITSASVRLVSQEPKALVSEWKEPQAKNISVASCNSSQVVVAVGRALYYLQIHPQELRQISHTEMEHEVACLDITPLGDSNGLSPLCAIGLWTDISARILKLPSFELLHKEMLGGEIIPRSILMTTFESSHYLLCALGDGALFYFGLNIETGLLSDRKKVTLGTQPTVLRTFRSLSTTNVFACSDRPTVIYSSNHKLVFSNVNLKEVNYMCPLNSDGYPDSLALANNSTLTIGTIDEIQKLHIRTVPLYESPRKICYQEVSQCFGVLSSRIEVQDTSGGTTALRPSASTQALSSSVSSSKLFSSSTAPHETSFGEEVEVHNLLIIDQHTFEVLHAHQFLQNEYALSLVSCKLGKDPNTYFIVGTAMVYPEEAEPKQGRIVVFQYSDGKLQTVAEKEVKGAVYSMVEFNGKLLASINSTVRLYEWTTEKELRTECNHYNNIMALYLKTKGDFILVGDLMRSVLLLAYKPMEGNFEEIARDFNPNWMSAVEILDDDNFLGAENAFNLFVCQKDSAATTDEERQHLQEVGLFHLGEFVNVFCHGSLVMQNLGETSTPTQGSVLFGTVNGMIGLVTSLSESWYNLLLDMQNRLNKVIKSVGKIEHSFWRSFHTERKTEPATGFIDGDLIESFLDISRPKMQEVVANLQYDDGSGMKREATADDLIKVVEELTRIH

SMILES | DC50 | Y
C[C@H](NC(=O)c1ccc2c(c1)CN(C1CCC(=O)NC1=O)C2=O)c1ccccc1 (stereo partly drawn) [Example 1, 2-(2,6-Dioxopiperidin-3-yl)-1-oxo-N—((S)-1-phenylethyl)isoindoline-5-carboxamide] | < 100 nM | * (a Y value (shown as *) of 0<Y≤20%)
CC(C)NC(=O)c1ccc2c(c1)CN(C1CCC(=O)NC1=O)C2=O (centres unmarked) [Example 2] | 100 to 500 nM | ** (a Y value (shown as**) of 20%<Y≤35%)
C[C@H](NC(=O)c1ccc2c(c1)CN(C1CCC(=O)NC1=O)C2=O)C1CCCC1 (some centres unmarked) [Example 3] | < 100 nM | * (a Y value (shown as *) of 0<Y≤20%)
C[C@@H](NC(=O)c1ccc2c(c1)CN(C1CCC(=O)NC1=O)C2=O)C1CCCCC1 (some centres unmarked) [Example 4] | < 100 nM | * (a Y value (shown as *) of 0<Y≤20%)
C[C@H](NC(=O)c1ccc2c(c1)CN(C1CCC(=O)NC1=O)C2=O)C1CC1 (some centres unmarked) [Example 5] | 100 to 500 nM | ** (a Y value (shown as**) of 20%<Y≤35%)
CC[C@H](NC(=O)c1ccc2c(c1)CN(C1CCC(=O)NC1=O)C2=O)c1ccccc1 (some centres unmarked) [Example 6] | < 100 nM | * (a Y value (shown as *) of 0<Y≤20%)
Cc1ccc([C@H](C)NC(=O)c2ccc3c(c2)CN(C2CCC(=O)NC2=O)C3=O)cc1 (some centres unmarked) [Example 7] | < 100 nM | * (a Y value (shown as *) of 0<Y≤20%)
C[C@H](NC(=O)c1ccc2c(c1)CN(C1CCC(=O)NC1=O)C2=O)c1ccc(Cl)cc1 (some centres unmarked) [Example 8] | < 100 nM | * (a Y value (shown as *) of 0<Y≤20%)
C[C@H](NC(=O)c1ccc2c(c1)CN(C1CCC(=O)NC1=O)C2=O)C1CCC1 (some centres unmarked) [Example 9] | < 100 nM | ** (a Y value (shown as**) of 20%<Y≤35%)
C[C@H](NC(=O)c1ccc2c(c1)CN(C1CCC(=O)NC1=O)C2=O)c1ccccn1 (some centres unmarked) [Example 10] | 100 to 500 nM | ** (a Y value (shown as**) of 20%<Y≤35%)
C[C@H](NC(=O)c1ccc2c(c1)CN(C1CCC(=O)NC1=O)C2=O)c1cccc(C#N)c1 (some centres unmarked) [Example 11] | 100 to 500 nM | ** (a Y value (shown as**) of 20%<Y≤35%)
COc1ccc([C@H](C)NC(=O)c2ccc3c(c2)CN(C2CCC(=O)NC2=O)C3=O)cc1 (some centres unmarked) [Example 12] | < 100 nM | ** (a Y value (shown as**) of 20%<Y≤35%)
C[C@H](NC(=O)c1ccc2c(c1)CN(C1CCC(=O)NC1=O)C2=O)c1cccc(Cl)c1 (some centres unmarked) [Example 15] | < 100 nM | * (a Y value (shown as *) of 0<Y≤20%)
C[C@H](NC(=O)c1ccc2c(c1)CN(C1CCC(=O)NC1=O)C2=O)c1ccc(F)cc1 (some centres unmarked) [Example 16] | < 100 nM | ** (a Y value (shown as**) of 20%<Y≤35%)
C[C@H](NC(=O)c1ccc2c(c1)CN(C1CCC(=O)NC1=O)C2=O)c1cccnc1 (some centres unmarked) [Example 19] | 100 to 500 nM | ** (a Y value (shown as**) of 20%<Y≤35%)
O=C1CCC(N2Cc3cc(C(=O)N[C@H](C4CCCCC4)C(F)(F)F)ccc3C2=O)C(=O)N1 (some centres unmarked) [Example 23] | < 100 nM | * (a Y value (shown as *) of 0<Y≤20%)
CC(C)[C@H](C)NC(=O)c1ccc2c(c1)CN(C1CCC(=O)NC1=O)C2=O (some centres unmarked) [Example 28] | 100 to 500 nM | ** (a Y value (shown as**) of 20%<Y≤35%)

SMILES | DC50 | Y
C[C@H](NC(=O)c1ccc2c(c1)CN(C1CCC(=O)NC1=O)C2=O)C(C)(C)C (some centres unmarked) [Example 30] | 500 to 1000 nM | ** (a Y value (shown as**) of 20%<Y≤35%)
COc1cccc([C@@H](NC(=O)c2ccc3c(c2)CN(C2CCC(=O)NC2=O)C3=O)C(F)(F)F)c1 (some centres unmarked) [Example 33] | < 100 nM | * (a Y value (shown as *) of 0<Y≤20%)
CC(C)(C)[C@@H](NC(=O)c1ccc2c(c1)CN(C1CCC(=O)NC1=O)C2=O)C(F)(F)F (stereo partly drawn) [Example 34, 2-(2,6-dioxopiperidin-3-yl)-1-oxo-N-((R)-1,1,1-trifluoro-3,3-dimethylbutan-2-yl)isoindoline-5-carboxamide] | 100 to 500 nM | ** (a Y value (shown as**) of 20%<Y≤35%)
COc1ccc([C@@H](NC(=O)c2ccc3c(c2)CN(C2CCC(=O)NC2=O)C3=O)C(F)(F)F)cc1 (stereo partly drawn) [Example 35, 2-(2,6-dioxopiperidin-3-yl)-1-oxo-N-((R)-2,2,2-trifluoro-1-(4-methoxyphenyl)ethyl)isoindoline-5-carboxamide] | < 100 nM | * (a Y value (shown as *) of 0<Y≤20%)
O=C1CCC(N2Cc3cc(C(=O)N[C@H](C4CCOCC4)C(F)(F)F)ccc3C2=O)C(=O)N1 (stereo partly drawn) [Example 36, 2-(2,6-dioxopiperidin-3-yl)-1-oxo-N-((R)-2,2,2-trifluoro-1-(tetrahydro-2H-pyran-4-yl)ethyl)isoindoline-5-carboxamide] | 100 to 500 nM | ** (a Y value (shown as**) of 20%<Y≤35%)
O=C1CCC(N2Cc3cc(C(=O)N[C@H](c4cccc(F)c4)C(F)(F)F)ccc3C2=O)C(=O)N1 (stereo partly drawn) [Example 37, 2-(2,6-dioxopiperidin-3-yl)-1-oxo-N-((R)-2,2,2-trifluoro-1-(3-fluorophenyl)ethyl)isoindoline-5-carboxamide] | < 100 nM | ** (a Y value (shown as**) of 20%<Y≤35%)
COc1ccccc1[C@@H](NC(=O)c1ccc2c(c1)CN(C1CCC(=O)NC1=O)C2=O)C(F)(F)F (stereo partly drawn) [Example 38, 2-(2,6-dioxopiperidin-3-yl)-1-oxo-N-((R)-2,2,2-trifluoro-1-(2-methoxyphenyl)ethyl)isoindoline-5-carboxamide] | < 100 nM | * (a Y value (shown as *) of 0<Y≤20%)
O=C1CCC(N2Cc3cc(C(=O)N[C@H](c4ccncc4)C(F)(F)F)ccc3C2=O)C(=O)N1 (stereo partly drawn) [Example 39, 2-(2,6-dioxopiperidin-3-yl)-1-oxo-N-((R)-2,2,2-trifluoro-1-(pyridin-4-yl)ethyl)isoindoline-5-carboxamide] | 500 to 1000 nM | *** (a Y value (shown as***) of 35%<Y<50%)
O=C1CCC(N2Cc3cc(C(=O)N[C@H](c4ccc(C(F)(F)F)cc4)C(F)(F)F)ccc3C2=O)C(=O)N1 (stereo partly drawn) [Example 40, 2-(2,6-dioxopiperidin-3-yl)-1-oxo-N-((R)-2,2,2-trifluoro-1-(4-(trifluoromethyl)phenyl)ethyl)isoindoline-5-carboxamide] | < 100 nM | * (a Y value (shown as *) of 0<Y≤20%)
O=C1CCC(N2Cc3cc(C(=O)N[C@H](c4ccc(OC(F)(F)F)cc4)C(F)(F)F)ccc3C2=O)C(=O)N1 (stereo partly drawn) [Example 41, 2-(2,6-dioxopiperidin-3-yl)-1-oxo-N-((R)-2,2,2-trifluoro-1-(4-(trifluoromethoxy)phenyl)ethyl)isoindoline-5-carboxamide] | 100 to 500 nM | * (a Y value (shown as *) of 0<Y≤20%)
O=C1CCC(N2Cc3cc(C(=O)N[C@H](c4ccc(Cl)cc4)C(F)(F)F)ccc3C2=O)C(=O)N1 (stereo partly drawn) [Example 42, N-((R)-1-(4-chlorophenyl)-2,2,2-trifluoroethyl)-2-(2,6-dioxopiperidin-3-yl)-1-oxoisoindoline-5-carboxamide] | < 100 nM | * (a Y value (shown as *) of 0<Y≤20%)
O=C1CCC(N2Cc3cc(C(=O)N[C@H](c4cccc(Cl)c4)C(F)(F)F)ccc3C2=O)C(=O)N1 (stereo partly drawn) [Example 43, N-((R)-1-(3-chlorophenyl)-2,2,2-trifluoroethyl)-2-(2,6-dioxopiperidin-3-yl)-1-oxoisoindoline-5-carboxamide] | < 100 nM | * (a Y value (shown as *) of 0<Y≤20%)
O=C1CCC(N2Cc3cc(C(=O)N[C@H](c4ccccc4OC(F)(F)F)C(F)(F)F)ccc3C2=O)C(=O)N1 (stereo partly drawn) [Example 44, 2-(2,6-dioxopiperidin-3-yl)-1-oxo-N-((R)-2,2,2-trifluoro-1-(2-(trifluoromethoxy)phenyl)ethyl)isoindoline-5-carboxamide] | < 100 nM | * (a Y value (shown as *) of 0<Y≤20%)
O=C1CCC(N2Cc3cc(C(=O)N[C@H](C4CCC(F)(F)CC4)C(F)(F)F)ccc3C2=O)C(=O)N1 (stereo partly drawn) [Example 45, N-((R)-1-(4,4-difluorocyclohexyl)-2,2,2-trifluoroethyl)-2-(2,6-dioxopiperidin-3-yl)-1-oxoisoindoline-5-carboxamide] | 100 to 500 nM | * (a Y value (shown as *) of 0<Y≤20%)
CC1(C)CCC([C@@H](NC(=O)c2ccc3c(c2)CN(C2CCC(=O)NC2=O)C3=O)C(F)(F)F)CC1 (stereo partly drawn) [Example 46, N-((R)-1-(4,4-dimethylcyclohexyl)-2,2,2-trifluoroethyl)-2-(2,6-dioxopiperidin-3-yl)-1-oxoisoindoline-5-carboxamide] | 100 to 500 nM | * (a Y value (shown as *) of 0<Y≤20%)
O=C1CCC(N2Cc3cc(C(=O)N[C@H](c4ccccc4C(F)(F)F)C(F)(F)F)ccc3C2=O)C(=O)N1 (stereo partly drawn) [Example 47, 2-(2,6-dioxopiperidin-3-yl)-1-oxo-N-((R)-2,2,2-trifluoro-1-(2-(trifluoromethyl)phenyl)ethyl)isoindoline-5-carboxamide] | < 100 nM | * (a Y value (shown as *) of 0<Y≤20%)
O=C1CCC(N2Cc3cc(C(=O)N[C@H](c4ccccn4)C(F)(F)F)ccc3C2=O)C(=O)N1 (stereo partly drawn) [Example 48, 2-(2,6-dioxopiperidin-3-yl)-1-oxo-N-((R)-2,2,2-trifluoro-1-(pyridin-2-yl)ethyl)isoindoline-5-carboxamide] | 100 to 500 nM | ** (a Y value (shown as**) of 20%<Y≤35%)
